In brackets after ≈: the same amount, converted by molar mass.
What was measured:
Experiment in all cases: microbe, parasite or virus in culture
[1] = tested on: M. tuberculosis H37Rv; type: cell-based; conditions: Mycobacterium tuberculosis
[2] = tested on: M. bovis BCG; type: cell-based; conditions: Mycobacterium tuberculosis variant bovis BCG
[3] = tested on: M. smegmatis mc^2155; type: cell-based, Mycobacterium smegmatis; conditions: Mycolicibacterium smegmatis

## NNC(=O)c1ccncc1 [Isoniazid, isoniazid]
[1]
  MIC: 0.05 mg/L (≈ 0.365 µM)
[2]
  MIC: 0.05 mg/L (≈ 0.365 µM)
[3]
  MIC: 16 mg/L (≈ 117 µM)

— US9128088B2 (priority 2008, dated 2015)
